# Assay results taken from ChEMBL document CHEMBL4420067, “Inhibitors of alpha-amino-beta-carboxymuconic acid semialdehyde decarboxylase” (2018).
# Target: 2-amino-3-carboxymuconate-6-semialdehyde decarboxylase (Homo sapiens, UniProt Q8TDX5)
# Experiment: Inhibition of human recombinant ACMSD1 expressed in Escherichia coli BL21 (DE3) cells assessed as reduction in conversion of 3-OH-anthranilic acid into ACMS by spectrophotometry
# Chain of 2-amino-3-carboxymuconate-6-semialdehyde decarboxylase (Q8TDX5 whole entry): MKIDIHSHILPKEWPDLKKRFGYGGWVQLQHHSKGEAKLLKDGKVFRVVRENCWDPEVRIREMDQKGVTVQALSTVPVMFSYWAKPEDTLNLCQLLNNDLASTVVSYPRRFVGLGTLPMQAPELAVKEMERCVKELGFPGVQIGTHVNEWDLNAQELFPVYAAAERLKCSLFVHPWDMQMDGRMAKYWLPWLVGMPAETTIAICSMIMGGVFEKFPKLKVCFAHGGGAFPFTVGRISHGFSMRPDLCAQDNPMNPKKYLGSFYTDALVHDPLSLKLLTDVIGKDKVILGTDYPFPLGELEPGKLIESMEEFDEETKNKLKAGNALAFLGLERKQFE
row,Structure (SMILES),IC50
1,N#Cc1c(/C=C/c2cccc(O)c2O)[nH]c(=S)[nH]c1=O,> 100 nM
2,N#Cc1c(/C=C/c2ccccc2-c2cc(F)c(O)c(F)c2)[nH]c(=S)[nH]c1=O,> 100 nM

# Continued, values first:
row,IC50,Structure (SMILES)
1,> 100 nM,CCOc1cccc(/C=C/c2[nH]c(=S)[nH]c(=O)c2C#N)c1OCC(=O)O
2,> 100 nM,COc1cccc(/C=C/c2[nH]c(=S)[nH]c(=O)c2C#N)c1OCC(=O)O
3,> 100 nM,COc1cccc(/C=C/c2[nH]c(=O)[nH]c(=O)c2[N+](=O)[O-])c1OCC(=O)O
